Results on 22 molecules are retold here after PubChem BioAssay AID1259408 (Genetic Toxicology Data Bank (GENE-TOX), 2018).

The series deals with GENE-TOX genotoxicity assays, various organisms and cells. The experiment in a line: GENE-TOX mutagenicity studies. The conditions noted are these: for call: Assay Type: In vivo carcinogenicity studies.
[1] abbreviates: Species/Cell Type: Human lymphocytes, Assay Type: Sister-chromatid exchange (SCE) in vitro, Assay Code: SCL+D, Dose Response: With dose response, Evaluation Type: Evaluation B (Post-1980).
Where [2] appears, read: Species/Cell Type: Human, Assay Type: Sister-chromatid exchange (SCE) in vitro, Assay Code: SC1+D, Dose Response: With dose response, Evaluation Type: Evaluation B (Post-1980).
The mark [3] stands for this setting: Species/Cell Type: Nonhuman, Assay Type: Sister-chromatid exchange (SCE) in vivo, Assay Code: SC3+D, Dose Response: With dose response, Evaluation Type: Evaluation B (Post-1980).
Setting [4] is: Species/Cell Type: Salmonella typhimurium (one or more of the five standard strains: TA98, TA100, TA1535, TA1537, and TA1538), Assay Type: Histidine reverse gene mutation, Ames assay, Assay Code: SAL+, Evaluation Type: Evaluation A (Pre-1980).
Where [5] appears, read: Species/Cell Type: Mammalian polychromatic erythrocytes, Assay Type: Micronucleus test, chromosome aberrations, Assay Code: MNTT, Evaluation Type: Evaluation B (Post-1980).
The mark [6] stands for this setting: Species/Cell Type: Saccharomyces cerevisiae, Assay Type: Mitotic recombination or gene conversion, Assay Code: YEC-, Evaluation Type: Evaluation A (Pre-1980).
The mark [7] stands for this setting: Species/Cell Type: Escherichia coli WP2 UVRA, Assay Type: Tryptophan reverse gene mutation, Assay Code: WPU+, Evaluation Type: Evaluation A (Pre-1980).
The mark [8] stands for this setting: Species/Cell Type: Nonhuman, Assay Type: Sister-chromatid exchange (SCE) in vitro, Assay Code: SC2+D, Dose Response: With dose response, Evaluation Type: Evaluation B (Post-1980).
[9] abbreviates: Species/Cell Type: Human lymphocytes, Assay Type: Sister-chromatid exchange (SCE) in vivo, Assay Code: SCY+, Evaluation Type: Evaluation B (Post-1980).
Where [10] appears, read: Species/Cell Type: Mouse, Sex: Male, Assay Type: Sperm morphology, Assay Code: SPI+, Evaluation Type: Evaluation A (Pre-1980).
Where [11] appears, read: Species/Cell Type: Salmonella typhimurium (one or more of the five standard strains: TA98, TA100, TA1535, TA1537, and TA1538), Assay Type: Histidine reverse gene mutation, Ames assay, Assay Code: SALT, Evaluation Type: Evaluation A (Pre-1980).

The source made the active and inactive calls. The rule behind the calls is not given here.

`CCN(Cc1ccccc1)c1ccc(C(=C2C=CC(=[N+](CC)Cc3ccccc3)C=C2)c2ccc(S(=O)(=O)O)cc2S(=O)(=O)[O-])cc1`: the mutagenic call (Species/Cell Type: Bacillus subtilis (H17 vs M45), Assay Type: Rec-assay, spot test, DNA effects (bacterial DNA repair), Assay Code: REWT, Evaluation Type: Evaluation A (Pre-1980)) is reported as “no conclusion”.

Take `C[C@H]1CCC[C@@]2(C)CCCC[C@]12O`: the mutagenic call (Species/Cell Type: Salmonella typhimurium (one or more of the five standard strains: TA98, TA100, TA1535, TA1537, and TA1538), Assay Type: Histidine reverse gene mutation, Ames assay, Assay Code: SAL-, Evaluation Type: Evaluation A (Pre-1980)) was “inactive; negative”.

With `ClC(Br)Br`, the mutagenic call reads like this: under setting [1], “active; positive”; under setting [2], “active; positive”; under setting [3], “active; positive”.

In the case of `CC(C)NCC1CCc2cc(CO)c([N+](=O)[O-])cc2N1` (configuration not stated), the mutagenic call was “inactive; negative” (Species/Cell Type: Rodents, Sex: Male, Assay Type: Dominant lethal test, Assay Code: DLT-, Evaluation Type: Evaluation A (Pre-1980)); “active; positive” under setting [4]; “active; positive” (Species/Cell Type: Salmonella typhimurium, Assay Type: Forward and reverse gene mutation, body fluid assay, Assay Code: BFU+, Evaluation Type: Evaluation A (Pre-1980)); “active; positive” (Species/Cell Type: Salmonella typhimurium, Assay Type: Forward and reverse gene mutation, host-mediated assay, Assay Code: HMA+, Evaluation Type: Evaluation A (Pre-1980)).

Turning to `Oc1cc(Cl)ccc1Oc1ccc(Cl)cc1Cl`, the mutagenic call runs as follows: under setting [5], “no conclusion”; (Species/Cell Type: Mouse, Sex: Female, Assay Type: Spot test, gene mutation, Assay Code: MST-, Evaluation Type: Evaluation A (Pre-1980)) “inactive; negative”; (Species/Cell Type: Saccharomyces cerevisiae, Assay Type: Forward gene mutation, Assay Code: YEF+, Evaluation Type: Evaluation A (Pre-1980)) “active; positive”; under setting [6], “inactive; negative”; (Species/Cell Type: Saccharomyces cerevisiae, Assay Type: Mitotic recombination or gene conversion, Assay Code: YEH+, Evaluation Type: Evaluation A (Pre-1980)) “active; positive”.

Regarding `CNc1nncc2ccccc12`, the mutagenic call is, setting by setting: under setting [2], “active; positive”; (Species/Cell Type: Nonhuman, Assay Type: Sister-chromatid exchange (SCE) in vivo, Assay Code: SC3+, Evaluation Type: Evaluation B (Post-1980)) “active; positive”.

As to `c1ccc2c(c1)ccc1cc3ccc4ccccc4c3cc12`, the mutagenic call (Species/Cell Type: Salmonella typhimurium (one or more of the five standard strains: TA98, TA100, TA1535, TA1537, and TA1538), Assay Type: Histidine reverse gene mutation, Ames assay, Assay Code: SAL+*, Activation: With metabolic activation, Evaluation Type: Evaluation A (Pre-1980)) was “active; positive”.

For `COc1cc(C=O)ccc1O`, the mutagenic call is “active; positive” under setting [1] and “active; positive” under setting [2].

Take `NNCCO`: the mutagenic call runs as follows: (Species/Cell Type: Bacillus subtilis (H17 vs M45), Assay Type: Rec-assay, spot test, DNA effects (bacterial DNA repair), Assay Code: REW+, Evaluation Type: Evaluation A (Pre-1980)) “active; positive”; (Species/Cell Type: Escherichia coli WP2, Assay Type: Tryptophan reverse gene mutation, Assay Code: WP2+, Evaluation Type: Evaluation A (Pre-1980)) “active; positive”; under setting [7], “active; positive”; under setting [8], “active; positive”; under setting [4], “active; positive”.

Turning to `CCCCCCCCCCCCN=C(N)N`, the mutagenic call under setting [6] is “inactive; negative”.

Take `CCCCCc1cc(O)c2c(c1)OC(C)(C)c1ccc(C)cc1-2`: the mutagenic call runs as follows: (Species/Cell Type: Fischer rat embryo (RLV/1706) cells, Assay Type: Cell transformation, viral enhanced, Assay Code: CTR-, Evaluation Type: Evaluation A (Pre-1980)) “inactive; negative”; under setting [9], “active; positive”; (Species/Cell Type: Mammalian polychromatic erythrocytes, Assay Type: Micronucleus test, chromosome aberrations, Assay Code: MNT+, Evaluation Type: Evaluation B (Post-1980)) “active; positive”; under setting [10], “active; positive”.

In the case of `CC(C)N(C(=O)CCl)c1ccccc1`, the mutagenic call (Species/Cell Type: Saccharomyces cerevisiae, Assay Type: Mitotic recombination or gene conversion, Assay Code: YEC+, Evaluation Type: Evaluation A (Pre-1980)) was “active; positive”.

Take `ClN1CC1`: the mutagenic call (Species/Cell Type: Schizosaccharomyces pombe, Assay Type: Reverse gene mutation, Assay Code: YEZ+, Evaluation Type: Evaluation A (Pre-1980)) is “active; positive”.

`c1ccccc1`: the mutagenic call runs as follows: (Species/Cell Type: Human lymphocytes or leukocytes, Assay Type: Chromosome aberrations in vitro, Assay Code: CY7+, Evaluation Type: Evaluation A (Pre-1980)) “active; positive”; (Species/Cell Type: Human lymphocytes or leukocytes, Assay Type: Chromosome aberrations in vivo, Assay Code: CY8+, Evaluation Type: Evaluation A (Pre-1980)) “active; positive”; (Species/Cell Type: Human lymphocytes, Assay Type: Sister-chromatid exchange (SCE) in vitro, Assay Code: SCL+*, Activation: With metabolic activation, Evaluation Type: Evaluation B (Post-1980)) “active; positive”; (Species/Cell Type: Human lymphocytes, Assay Type: Sister-chromatid exchange (SCE) in vitro, Assay Code: SCL-, Evaluation Type: Evaluation A (Pre-1980)) “inactive; negative”; under setting [9], “active; positive”; (Species/Cell Type: Human, Assay Type: Sister-chromatid exchange (SCE) in vitro, Assay Code: SC1+*, Activation: With metabolic activation, Evaluation Type: Evaluation B (Post-1980)) “active; positive”. The mutagenic call is, setting by setting: (Species/Cell Type: Human, Assay Type: Sister-chromatid exchange (SCE) in vitro, Assay Code: SC1-, Evaluation Type: Evaluation A (Pre-1980)) “inactive; negative”; (Species/Cell Type: Mammalian polychromatic erythrocytes, Assay Type: Micronucleus test, chromosome aberrations, Assay Code: MNT+, Evaluation Type: Evaluation A (Pre-1980)) “active; positive”; under setting [10], “active; positive”; under setting [8], “active; positive”; under setting [3], “active; positive”; (Species/Cell Type: Syrian hamster embryo (SA7/SHE) cells, Assay Type: Cell transformation, viral enhanced, Assay Code: CT7-, Evaluation Type: Evaluation A (Pre-1980)) “inactive; negative”. In addition, where the note is “Species/Cell Type: Tradescantia species, Assay Type: Gene mutation, Assay Code: TRM+D, Dose Response: With dose response, Evaluation Type: Evaluation A (Pre-1980)”, the mutagenic call is “active; positive”. For the same molecule, under “Species/Cell Type: Nonhuman, Assay Code: CCG+, Evaluation Type: Evaluation A (Pre-1980)”, the call is “active; positive”.

With `Oc1c(I)cc(Cl)c2cccnc12`, under “Species/Cell Type: Neurospora crassa, Assay Type: Aneuploidy, chromosome aberrations, Assay Code: NEN-, Evaluation Type: Evaluation A (Pre-1980)”, the mutagenic call was “inactive; negative”.

For the molecule `O=[N+]([O-])c1cnc[nH]1`, the mutagenic call under setting [11] was “no conclusion”.

`C1CC2OC2C2OC12` (configuration not stated): where the note is “Species/Cell Type: Neurospora crassa, Assay Type: Forward gene mutation, Assay Code: NEF-, Evaluation Type: Evaluation A (Pre-1980)”, the mutagenic call is “inactive; negative”.

Turning to `NCCNc1cccc2ccccc12`, the call (Species/Cell Type: Nonhuman, Assay Code: CCG-, Evaluation Type: Evaluation A (Pre-1980)) is “inactive; negative”.

On to `N#Cc1cccc2c([N+](=O)[O-])cccc12`, for which the mutagenic call is, setting by setting: (Species/Cell Type: Bacillus subtilis (H17 vs M45T), Assay Type: Rec-assay, spot test, DNA effects (bacterial DNA repair), Assay Code: REXT, Evaluation Type: Evaluation A (Pre-1980)) “no conclusion”; (Species/Cell Type: Escherichia coli WP2, Assay Type: Tryptophan reverse gene mutation, Assay Code: WP2-, Evaluation Type: Evaluation A (Pre-1980)) “inactive; negative”; under setting [7], “active; positive”; (Species/Cell Type: Nonhuman, Assay Type: Sister-chromatid exchange (SCE) in vitro, Assay Code: SC2+, Evaluation Type: Evaluation B (Post-1980)) “active; positive”; under setting [4], “active; positive”.

`CCc1cn([C@H]2C[C@H](O)[C@@H](CO)O2)c(=O)[nH]c1=O`: the mutagenic call was “no conclusion” (Species/Cell Type: Drosophila melanogaster, Assay Type: Sex-linked recessive lethal gene mutation, Assay Code: SRLT, Evaluation Type: Evaluation A (Pre-1980)); “no conclusion” (Species/Cell Type: Drosophila melanogaster, Sex: Male, Assay Type: Heritable translocation test, chromosome aberrations, Assay Code: DHTT, Evaluation Type: Evaluation A (Pre-1980)); “no conclusion” (Species/Cell Type: Human lymphocytes, Assay Type: Sister-chromatid exchange (SCE) in vitro, Assay Code: SCLT, Evaluation Type: Evaluation B (Post-1980)); “no conclusion” (Species/Cell Type: Human, Assay Type: Sister-chromatid exchange (SCE) in vitro, Assay Code: SC1T, Evaluation Type: Evaluation B (Post-1980)).

Turning to `CC1CN(N=O)CC(C)N1C(=O)c1ccccc1` (configuration not stated), under setting [11], the mutagenic call is “no conclusion”.

On to `O=S(O)S(=O)(=O)O`, for which the mutagenic call under setting [5] was “no conclusion”; the mutagenic call (Species/Cell Type: Nonhuman, Assay Type: Sister-chromatid exchange (SCE) in vitro, Assay Code: SC2T, Evaluation Type: Evaluation A (Pre-1980)) is “no conclusion”; the mutagenic call (Species/Cell Type: Nonhuman, Assay Type: Sister-chromatid exchange (SCE) in vivo, Assay Code: SC3-, Evaluation Type: Evaluation B (Post-1980)) was “inactive; negative”.
